In US10729785B2, “Particles comprising protamine and RNA in combination with endosome destabilizing agents” (BioNTech SE, priority 2014, dated 2020):

System: fresh human red blood cells
Experiment: Validation of EDA: lysis of red blood cells at acidic pH (OD 405 nm of supernatant as surrogate of hemoglobin content)
Type: cell-based
Settings: pH below 6, 7 hours; for damage of red blood cells / destabilization of cell membranes (OD 405 nm, hemoglobin content): 6 micrograms of peptide, 3 million human red blood cells in PBS, 37° C.

Row | Sequence | damage of red blood cells / destabilization of cell membranes (OD 405 nm, hemoglobin content) | relative efficacy in damaging red blood cells (peptide 2 compared with peptide 1)
1 | GLFEAIEGFIENGWEGLAEALAEALEALAAGGSC (Peptide 2) [Peptide derived from Influenza virus hemagglutinin, used as endosome destabilizing agent] | damages red blood cells | more efficacious than peptide 1
2 | GLFEAIEGFIENGWEGMIDGWYG [peptide 1] | damages red blood cells | –
